From patent US9408796B2, “Cosmetic compositions for improving the appearance of skin” (Avon Products, Inc., priority 2013, dated 2016) come the findings set out here.

For test [1], the system named is Human dermal fibroblasts. The test is described as follows: Collagen stimulation: procollagen type I C-peptide (PIP) EIA on conditioned medium. The test is classed as cell-based. The following applies: 0.0005% compound, 48-hour incubation, increase in collagen over the vehicle control. On the procedure:
(§1) Collagen. Human dermal fibroblasts (Cascade Biologics, Portland, Oreg.) were plated at in 96-well culture plates in supplemented medium (DMEM, 10% Fetal Bovine Serum, 1% Penicillin/Streptomycin and 1% L-Glutamine) overnight in humidified atmosphere of 10% CO2 at 37° C. The following day, the medium was replaced with fresh medium (DMEM, 1% Penicillin/Streptomycin and 1% L-Glutamine) and the actives dissolved in a vehicle were added to the wells in triplicate. Vehicle was used as control. Following 48-hour incubation, the plates were removed from the incubator and the medium from each well was collected for the procollagen assay.
Collage production was measured using procollagen type I C-peptide (PIP) EIA kit (Takara Bio, Inc., Japan). Briefly, the conditioned medium was diluted 1:10 in Sample Diluent. 20 μl of diluted conditioned medium and 100 μl of antibody-POD conjugate solution were added to the wells of the Takara ELISA plate. The ELISA plate was incubated at 37° C. for 3 hours before the wells were washed four times with 400 μl of 1×PBS. At the end of wash, 100 μl of substrate solution (supplied with kit) was added to the wells and incubated at room temperature for 15 minutes. […] The absorbance was measured on a spectrophotometer at 450 nm wavelength. The amount of procollagen peptide in the conditioned medium was calculated from the standard curve. […]

Test [2] deals with Human dermal fibroblasts. The experiment in a line: Hyaluronic acid stimulation: hyaluronic acid test kit on conditioned medium. As to conditions: 0.0005% compound, 48-hour incubation, increase in hyaluronic acid over the vehicle control. The test is classed as cell-based. On the procedure:
as §1, with “Human” for “Collagen. Human”, “hyaluronic acid” for “procollagen”
Hyaluronic acid production was measured using hyaluronic acid test kit (Corgenix, Inc. CO, USA). Briefly, 100 μl diluted conditioned medium was added to appropriate microwells and was incubated for 60 minutes at room temperature. After the incubation is complete, the conditioned medium was removed and 100 μl HRP-conjugated HABP solution was added to each well and incubated for 30 minutes at room temperature. Wash each well 4 times with PBS after the incubation is complete. Add 100 μl One-component Substrate Solution to each well and incubate for 30 minutes at room temperature. Add 100 μl Stopping Solution to stop the enzyme reaction and read the O.D. of each well at 450 nm. The amount of hyaluronic acid in the conditioned medium was calculated from the standard curve. […]

Turning to `COc1ccccc1CNc1nc(-c2ccc(O)c(C(N)=O)c2)cs1` [Formula I(c)], in the test on Human dermal fibroblasts [1], the Collagen stimulation entry is on record as “+ (The “+” describes a stimulation of between 21-40%)”.

On to `COc1cccc(-c2nc(-c3ccc(O)c(C(N)=O)c3)cs2)c1OC` [Formula I(d)], for which the Hyaluronic acid stimulation result in the test with Human dermal fibroblasts [2] is “+ (The “+” describes a stimulation of between 21-40%)”. In addition, the Collagen stimulation entry in the test with Human dermal fibroblasts [1] is on record as “+ (The “+” describes a stimulation of between 21-40%)”.
